# According to ChEMBL document CHEMBL4483862, “Open-source discovery of chemical leads for next-generation chemoprotective antimalarials” (2018):
# System: Plasmodium berghei
# Assay: Luciferase/luciferin-expressing antifolate-resistant parasites were used to infect a culture of HepG2 cells that were pre-incubated with compounds. Infected hepatocytes emit light due to the luciferase reaction. Assay results are presented as the percent inhibition of light emission compared to control. […]
# Assay type: functional
# Conditions: sporozoite; for IC90: read-out: LUCIFERASE INFECTION ASSAY - IC90
# [1] = read-out: LUCIFERASE INFECTION ASSAY - IC50
Structure (SMILES),IC90 [µM],IC50 [1] [µM],further results
CNc1ncnc(NNC(=O)Nc2ccccc2)c1[N+](=O)[O-],> 10.9,,"IC50 (HEPG2TOX_HILL_SLOPE 0.255, HEPG2TOX_R_SQUARED 0.589, PBLUC_HILL_SLOPE 1.34, PBLUC_R_SQUARED 0.392, read-out: LUCIFERASE INFECTION ASSAY - IC50): 6.01 µM"
OCc1ccc(-c2cnc3ccc(-c4ccoc4)nn23)cc1,> 10,4.97,
COc1ccc(/C(C#N)=C/c2ccccc2OC)cc1,2.26,,"IC50 (HEPG2TOX_HILL_SLOPE 1.28, HEPG2TOX_R_SQUARED 0.968, PBLUC_HILL_SLOPE 1.65, PBLUC_R_SQUARED 0.898, read-out: LUCIFERASE INFECTION ASSAY - IC50): 0.597 µM"
COc1ccc2cc(CN(C)C(=O)c3cnn(Cc4ccccc4)c3)ccc2c1,> 10,2.85,
O=C(Cc1noc2ccccc12)N1CCN(c2ccc(C(F)(F)F)cn2)CC1,> 10,> 10,
CC1(C)CC(Nc2ncnc3sc(-c4ccccc4)cc23)CC(C)(C)N1,> 10,,"IC50 (PBLUC_HILL_SLOPE 16.4, PBLUC_R_SQUARED 0.0474, read-out: LUCIFERASE INFECTION ASSAY - IC50): 8.84 µM"
NC(=O)c1ccsc1NC(=O)c1cc(-c2ccccc2)nn1-c1ccccc1,3.68,,"IC50 (PBLUC_HILL_SLOPE 12.3, PBLUC_R_SQUARED 0.697, read-out: LUCIFERASE INFECTION ASSAY - IC50): 3.08 µM"
Cc1cc(C(=O)CSc2nnc(Cc3cccc4ccccc34)n2C2CCCCC2)c(C)n1CC(F)(F)F,> 10,,"IC50 (FFLUC_HILL_SLOPE 15.7, FFLUC_R_SQUARED 0.514, PBLUC_HILL_SLOPE 7.31, PBLUC_R_SQUARED 0.494, read-out: LUCIFERASE INFECTION ASSAY - IC50): 8.44 µM"
COc1ccc(Nc2nccc3[nH]c(-c4ccsc4)cc23)cn1,> 10,> 10,
COc1ccc(-c2nc3ccnc(NCc4ccc(Cl)cc4)c3[nH]2)cc1,4.74,,"IC50 (PBLUC_HILL_SLOPE 2.99, PBLUC_R_SQUARED 0.272, read-out: LUCIFERASE INFECTION ASSAY - IC50): 2.27 µM"
O=C1C=C/C(=N\Nc2ccc3ncsc3c2)c2cccnc21,> 10,,"IC50 (HEPG2TOX_HILL_SLOPE 2.28, HEPG2TOX_R_SQUARED 0.978, PBLUC_HILL_SLOPE 13.8, PBLUC_R_SQUARED 0.454, read-out: LUCIFERASE INFECTION ASSAY - IC50): 8.95 µM"
Cc1cc(Cl)ccc1NC(=O)c1cn(C)nc1C(F)(F)F,> 10,> 10,
Clc1ccccc1-c1cnc2sc(NCc3cccs3)nn12,> 9.51,,"IC50 (FFLUC_HILL_SLOPE 0.509, FFLUC_R_SQUARED 0.232, read-out: LUCIFERASE INFECTION ASSAY - IC50): > 9.51 µM"
CCc1c(C)sc2nc(SCc3nc4ccccc4s3)n(-c3ccc(O)cc3C)c(=O)c12,> 10,> 10,
Cc1ccccc1NC(=O)c1cc2ccccc2c(CN2CCC3(CC2)OCCO3)c1O,1.28,,"IC50 (FFLUC_HILL_SLOPE 10.9, FFLUC_R_SQUARED 0.858, HEPG2TOX_HILL_SLOPE 2.82, HEPG2TOX_R_SQUARED 0.87, PBLUC_HILL_SLOPE 1.78, PBLUC_R_SQUARED 0.84, read-out: LUCIFERASE INFECTION ASSAY - IC50): 0.373 µM"
Cc1cc(C(=O)OCC(=O)NC(C)c2ccccc2)c(C)n1-c1ccccc1 (stereo not drawn),> 10,,"IC50 (HEPG2TOX_HILL_SLOPE 1.33, HEPG2TOX_R_SQUARED 0.976, PBLUC_HILL_SLOPE 3.52, PBLUC_R_SQUARED 0.43, read-out: LUCIFERASE INFECTION ASSAY - IC50): 7.39 µM"
Cn1nc(-c2ccc(/C=C(\C#N)S(C)(=O)=O)s2)cc1C(F)(F)F,> 9.13,> 9.13,
CCn1nc(C)cc1-c1nnc(SCc2ccccc2)n1-c1cccc(C(F)(F)F)c1,> 7.44,> 7.44,
CCCCC(=O)OCC(=O)Nc1nc(-c2ccc(C)cc2O)cs1,> 10,> 10,
COc1ccccc1-c1nc2ccc(NC(=O)Nc3ccc(OC(F)(F)F)cc3)cn2n1,> 10,,"IC50 (PBLUC_HILL_SLOPE 3.5, PBLUC_R_SQUARED 0.389, read-out: LUCIFERASE INFECTION ASSAY - IC50): 7.37 µM"
CCCN(Cc1nc(-c2ccccc2)c2ccccc2n1)Cc1nc2ccsc2c(=O)[nH]1,> 10,> 10,
CC(C)c1ccc(NC(=O)N2Cc3cnc(Nc4ccc(OCCN5CCCC5)cc4)nc3C2)cc1,> 6.78,> 6.78,
O=[N+]([O-])c1cc(C(F)(F)F)ccc1Sc1nnc(-c2ccc(Cl)cc2)[nH]1,> 8.23,,"IC50 (FFLUC_HILL_SLOPE 0.154, FFLUC_R_SQUARED 0.106, read-out: LUCIFERASE INFECTION ASSAY - IC50): > 8.23 µM"
O=C(CSc1nnc(-c2ccncc2)[nH]1)NC1CCCc2ccccc21 (stereo not drawn),> 10,> 10,
C=S(=O)(NS(=O)(=O)c1ccc2c(c1)CCN2C(C)=O)c1ccc(C)cc1 (stereo not drawn),> 8.41,> 8.41,

Structure (SMILES),IC90 [µM],IC50 [1] [µM],further results
CCn1nnc2cc(C(=O)Nc3cccc(Cl)c3N3CCOCC3)ccc21,> 10,,"IC50 (HEPG2TOX_HILL_SLOPE 5.65, HEPG2TOX_R_SQUARED 0.159, PBLUC_HILL_SLOPE 1.72, PBLUC_R_SQUARED 0.0547, read-out: LUCIFERASE INFECTION ASSAY - IC50): 5.31 µM"
C(=C1\CCc2cnc3scc[n+]3c21)/c1ccccc1,> 10,,"IC50 (HEPG2TOX_HILL_SLOPE 2.32, HEPG2TOX_R_SQUARED 0.938, read-out: LUCIFERASE INFECTION ASSAY - IC50): > 10 µM"
N#C/C(=C\c1ccc(OCc2ccccc2)c(OCc2ccccc2)c1)c1nnc2n1CCCCC2,> 10,> 10,
COc1cc(NC(=O)N2Cc3cnc(Nc4ccc(Oc5ccccc5)cc4)nc3C2)cc(OC)c1OC,> 6.43,,"IC50 (PBLUC_HILL_SLOPE 5.21, PBLUC_R_SQUARED 0.0507, read-out: LUCIFERASE INFECTION ASSAY - IC50): 5.26 µM"
FC(F)(F)c1cc(NCc2ccccc2C(F)(F)F)nc(-c2ccccn2)n1,7.12,,"IC50 (PBLUC_HILL_SLOPE 3.13, PBLUC_R_SQUARED 0.711, read-out: LUCIFERASE INFECTION ASSAY - IC50): 3.52 µM"
COc1ccccc1NC(=O)C(C)OC(=O)c1ccc(NS(=O)(=O)c2ccc(Cl)c(Cl)c2)cc1 (stereo not drawn),> 10,,"IC50 (HEPG2TOX_HILL_SLOPE 8.29, HEPG2TOX_R_SQUARED 0.881, read-out: LUCIFERASE INFECTION ASSAY - IC50): > 10 µM"
Oc1ccc(-c2cnc3cnc(-c4ccc(Cl)cc4Cl)cn23)cc1,3.44,,"IC50 (HEPG2TOX_HILL_SLOPE 1.37, HEPG2TOX_R_SQUARED 0.776, PBLUC_HILL_SLOPE 1.58, PBLUC_R_SQUARED 0.733, read-out: LUCIFERASE INFECTION ASSAY - IC50): 0.858 µM"
COc1ccccc1-c1nnc(SCc2cc(=O)c(O)co2)n1C,> 10,> 10,
FC(F)(F)c1cccc(-c2nc3ccnc(Nc4ccccc4)c3[nH]2)c1,> 10,3.2,
CSc1cnc(-n2c(-c3ccc(C)cc3)cs/c2=N\C(=O)c2ccccc2)nc1,> 10,,"IC50 (PBLUC_HILL_SLOPE 2.11, PBLUC_R_SQUARED 0.145, read-out: LUCIFERASE INFECTION ASSAY - IC50): > 10 µM"
Cc1ccc2cc(COC(=O)c3cc4c(s3)CCC(C)C4)c(Cl)nc2c1 (stereo not drawn),> 10,> 10,
CC(=O)c1cccc(-c2cnc3ccc(-c4ccoc4)nn23)c1,6.77,,"IC50 (HEPG2TOX_HILL_SLOPE 0.314, HEPG2TOX_R_SQUARED 0.72, PBLUC_HILL_SLOPE 2.12, PBLUC_R_SQUARED 0.552, read-out: LUCIFERASE INFECTION ASSAY - IC50): 2.41 µM"
Cc1cc(C(=N)NOC(=O)C(C)(C)C)cc(C(=N)NOC(=O)C(C)(C)C)c1,> 8.77,> 8.77,
Cc1ccc(SCc2cc(=O)n3nc(C)c(-c4ccccc4)c3[nH]2)cc1,> 9.13,,"IC50 (PBLUC_HILL_SLOPE 11, PBLUC_R_SQUARED 0.259, read-out: LUCIFERASE INFECTION ASSAY - IC50): 7.6 µM"
CC1C(OC(=O)c2ccc(CS(C)(=O)=O)cc2)CC2CC1C2(C)C (stereo not drawn),> 10,> 10,
C=CCn1c(O)nnc1Sc1ncc([N+](=O)[O-])s1,> 11.6,> 11.6,
O=C(N/N=C/c1c(Cl)nc2ccccn2c1=O)c1ccc(F)cc1,> 10,> 10,
Cc1cc(O)cc2c1C(=O)/C(=C/c1ccccc1F)O2,11.8,,"IC50 (FFLUC_HILL_SLOPE 1.55, FFLUC_R_SQUARED 0.688, HEPG2TOX_HILL_SLOPE 12, HEPG2TOX_R_SQUARED 0.541, PBLUC_HILL_SLOPE 35.8, PBLUC_R_SQUARED 0.416, read-out: LUCIFERASE INFECTION ASSAY - IC50): 11.1 µM"
O=c1[nH]c2ccc(-c3csc(-c4ccsc4)n3)cc2[nH]1,> 10,4.23,
O=C(NC(c1ccccc1)C1CC1)c1cccc(S(=O)(=O)N2CCN(c3ccc(F)cc3)CC2)c1 (stereo not drawn),> 10,,"IC50 (FFLUC_HILL_SLOPE 1.82, FFLUC_R_SQUARED 0.654, PBLUC_HILL_SLOPE 3.16, PBLUC_R_SQUARED 0.76, read-out: LUCIFERASE INFECTION ASSAY - IC50): 7.34 µM"
O=C(Cn1cccc(C(F)(F)F)c1=O)NC(Cc1ccccc1)c1ccccc1 (stereo not drawn),> 10,> 10,
CN(C)S(=O)(=O)c1cccc(NC(=O)c2ccc3c(c2Cl)C(=O)c2ccccc2C3=O)c1,> 10,8.82,
Cc1nn(Cc2n[nH]c(=S)o2)c(C)c1Br,> 11.4,> 11.4,
Cn1c(Cc2ccccc2)ns/c1=N\C(=Nc1ccccc1)c1ccccc1,> 10,> 10,
